In article PMC8162404, “Proteomimetic surface fragments distinguish targets by function” (Chemical Science, 2020):
Like-named read-outs stand apart in the source and are kept apart here.

Tests used:
S100B = molecular target: T1, S100B (Homo sapiens, UniProt P04271); experiment: Pull-down assay with immobilized protein and LSM libraries; type: binding; settings: 1:1 binding assumed, read-out: Surface mapping KD (apparent)
T1 construct: made in house; host or cells: Escherichia coli BL21(DE3)
T1 sequence (P04271 1-92): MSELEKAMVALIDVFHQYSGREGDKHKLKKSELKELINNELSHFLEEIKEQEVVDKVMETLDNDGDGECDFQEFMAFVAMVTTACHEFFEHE
Experimental: (§1) Pull-down assays with immobilized test proteins and foldameric LSM libraries were carried out. Proteins were equilibrated with LSM probes, and equilibrium bound fractions (FB) were determined from the unbound fractions measured by HPLC-MS methods. Hits were corrected with background binding of the resin. The protocol allowed all binding events to equilibrate irrespective of affinity, specificity, and binding kinetics. This was essential to judge overall druggability and promiscuity. Importantly, the concentration of protein and the total concentration of foldameric LSMs were equimolar, which minimized competition between the probes. This experimental setup approximated independent binding of individual library members. Results were visualized as heat maps of dissociation constants (Fig. 3).
(§2) Pull-down assay and data analysis
(§3) Pull-down assay. LSM sublibraries were screened separately as previously described.(2) Experiments were performed in the following buffers: (i) 20 mM pH 7.4 HEPES, 150 mM NaCl, 5 mM CaCl2 for CaM; (ii) 50 mM pH 7.4 HEPES, 150 mM NaCl, 1 mM TCEP, 1 mM CaCl2 for S100 proteins; (iii) 20 mM pH 7.4 HEPES, 150 mM NaCl, 1 mM TCEP for Gal-1 and (iv) 20 mM pH 7.4 HEPES, 150 mM NaCl for RecQ-WH. Assays were performed in paper filter spin cups (Thermo Scientific) with sample volumes of 100 µl. Hexahistidine-tagged proteins were immobilized on previously washed Co-NTA resin (TALON, Takara Bio USA, Inc., Mountain View, CA) in 64 µM final concentration. LSM sublibrary was added, in which each of the 64 library members were used at a concentration of 1 µM. Samples were incubated at room temperature for 30 min with shaking at 100 rpm. Then, samples were centrifuged at 1000 rpm for 2 min and washed with 100 µl pull-down buffer to remove unbound compounds.
(§4) The control experiments were performed using the same compounds and the resin but without the immobilized protein. In case of competitive assays, competitor peptides were added to LSM sublibrary samples in 200 µM final concentration. In the case of Gal-1, lactose (competitor) was used in a concentration of 10 mM. Experiments were performed at least twice. Mean […]
(§5) LC-MS methods and parameters. HPLC/ESI-MS analysis was used to characterize the samples from the pull-down assay. LC-MS analysis was performed with a Thermo Scientific Dionex UltiMate 3000 HPLC system interfaced to an LTQ ion trap mass spectrometer (Thermo Electron Corp., San Jose, CA, USA). Samples were injected onto an Aeris Widepore XB-C18 (250 x 4.6 mm) analytical HPLC column using gradient elution 5-80 % solution B during 25 minutes. For pull-down samples, eluent composition was 0.1% acetic acid in distilled water (Solution A) and 0.1% acetic acid in acetonitrile (solution B). Mass spectra were acquired in full scan mode from 200 to 2000 m/z range. For overlapping peaks, selective reaction monitoring (SRM) was […]
(§6) MS data analysis. Thermo Xcalibur 2.2 software was used for peak identification and integration. The majority of the foldameric fragments could be resolved independently via HPLC-MS/MS measurements based on molecular weight, MS fragmentation pattern and retention time. Peaks of some foldamers with β3-hIle or β3-hLeu in position R2 could not be resolved, these were integrated and averaged. In the processing method, each sample component was associated to a chromatographic peak based on previously identified mass (m/z) and retention time (ref (2) and Table S7-10). Using ICIS peak detection algorithm, the general detection and integration criteria were: smoothing points: 5, baseline window: 80, area noise factor: 5, peak noise factor: 10. Using these processing setups, all raw data files were reprocessed together and analyzed. Errors in peak identification during the automatic processing were corrected manually.
(§7) Calculation of the discussed parameters
(§8) 1. Bound fractions (FB.) were calculated from the HPLC-MS intensity loss of the LSM probes compared to the control where no protein was immobilized to the resin: […]

Gal-1 = molecular target: T2, Gal-1 (Homo sapiens, UniProt P09382); experiment: as above; type: binding; settings: H12 library; 1:1 binding assumed; read-out: Surface mapping KD (apparent)
T2 construct: made in house; host or cells: E. coli BL21(DE3)
Experimental: as §1, §2, §3, §4, §5, §6, §7, §8

T2 sequence (P09382 whole entry): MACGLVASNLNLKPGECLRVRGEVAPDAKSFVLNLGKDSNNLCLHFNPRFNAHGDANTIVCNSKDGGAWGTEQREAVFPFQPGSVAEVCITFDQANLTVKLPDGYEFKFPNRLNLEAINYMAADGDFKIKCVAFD

Row | SMILES | Kd (S100B; H12 library) [µM] | other results
1 | NCCCC[C@@H](CC(=O)N[C@H]1CCCC[C@@H]1C(N)=O)NC(=O)[C@H]1CCCC[C@@H]1NC(=O)[C@H]1CCCC[C@@H]1NC(=O)C[C@H](CCC(=O)O)NC(=O)[C@H]1CCCC[C@@H]1N [H14 EK] |  | Kd (S100B; H14 library): 324 µM
2 | N=C(N)NCCC[C@@H](CC(=O)N[C@H]1CCCC[C@@H]1C(N)=O)NC(=O)[C@H]1CCCC[C@@H]1NC(=O)[C@H]1CCCC[C@@H]1NC(=O)C[C@H](CCC(=O)O)NC(=O)[C@H]1CCCC[C@@H]1N [H14 ER] |  | Kd (S100B; H14 library): 349 µM
3 | N=C(N)NCCC[C@@H](CC(=O)N[C@H]1CCCC[C@@H]1C(N)=O)NC(=O)[C@H]1CCCC[C@@H]1NC(=O)[C@H]1CCCC[C@@H]1NC(=O)C[C@H](CC(=O)O)NC(=O)[C@H]1CCCC[C@@H]1N [H14 DR] |  | Kd (S100B; H14 library): 193 µM
4 | C[C@@H](O)[C@@H](CC(=O)N[C@H]1CCC[C@@H]1C(=O)N[C@H]1CCC[C@@H]1C(=O)N[C@@H](CCCCN)CC(=O)N[C@H]1CCC[C@@H]1C(=O)N[C@H]1CCC[C@@H]1C(N)=O)NC(=O)[C@H]1CCC[C@@H]1NC(=O)[C@H]1CCC[C@@H]1N [H12 TK] | 253 | 
5 | CC[C@H](C)[C@@H](CC(=O)N[C@H]1CCC[C@@H]1C(=O)N[C@H]1CCC[C@@H]1C(=O)N[C@H](CC(=O)N[C@H]1CCC[C@@H]1C(=O)N[C@H]1CCC[C@@H]1C(N)=O)[C@@H](C)O)NC(=O)[C@H]1CCC[C@@H]1NC(=O)[C@H]1CCC[C@@H]1N [H12 IT] | 216 | 
6 | CC(C)C[C@@H](CC(=O)N[C@H]1CCC[C@@H]1C(=O)N[C@H]1CCC[C@@H]1C(=O)N[C@@H](CO)CC(=O)N[C@H]1CCC[C@@H]1C(=O)N[C@H]1CCC[C@@H]1C(N)=O)NC(=O)[C@H]1CCC[C@@H]1NC(=O)[C@H]1CCC[C@@H]1N [H12 LS] | 258 | 
7 | N=C(N)NCCC[C@@H](CC(=O)N[C@H]1CCC[C@@H]1C(=O)N[C@H]1CCC[C@@H]1C(=O)N[C@@H](CCC(N)=O)CC(=O)N[C@H]1CCC[C@@H]1C(=O)N[C@H]1CCC[C@@H]1C(N)=O)NC(=O)[C@H]1CCC[C@@H]1NC(=O)[C@H]1CCC[C@@H]1N [H12 RQ] | 210 | 
8 | NCCCC[C@@H](CC(=O)N[C@H]1CCCC[C@@H]1C(=O)N[C@H]1CCCC[C@@H]1C(=O)N[C@@H](CCC(=O)O)CC(=O)N[C@H]1CCCC[C@@H]1C(N)=O)NC(=O)[C@H]1CCCC[C@@H]1N [H14 KE] |  | Kd (S100B; H14 library): 324 µM
9 | NCCCC[C@@H](CC(=O)N[C@H]1CCC[C@@H]1C(=O)N[C@H]1CCC[C@@H]1C(N)=O)NC(=O)[C@H]1CCC[C@@H]1NC(=O)[C@H]1CCC[C@@H]1NC(=O)C[C@H](CO)NC(=O)[C@H]1CCC[C@@H]1NC(=O)[C@H]1CCC[C@@H]1N [H12 SK] | 401 | 
10 | CC[C@H](C)[C@@H](CC(=O)N[C@H]1CCC[C@@H]1C(=O)N[C@H]1CCC[C@@H]1C(=O)N[C@@H](CCCCN)CC(=O)N[C@H]1CCC[C@@H]1C(=O)N[C@H]1CCC[C@@H]1C(N)=O)NC(=O)[C@H]1CCC[C@@H]1NC(=O)[C@H]1CCC[C@@H]1N [H12 IK] | 87 | 
11 | C[C@@H](O)[C@@H](CC(=O)N[C@H]1CCC[C@@H]1C(=O)N[C@H]1CCC[C@@H]1C(N)=O)NC(=O)[C@H]1CCC[C@@H]1NC(=O)[C@H]1CCC[C@@H]1NC(=O)C[C@H](CCCCN)NC(=O)[C@H]1CCC[C@@H]1NC(=O)[C@H]1CCC[C@@H]1N [H12 KT] | 226 | 
12 | NC(=O)[C@H]1CCC[C@@H]1NC(=O)[C@H]1CCC[C@@H]1NC(=O)C[C@H](Cc1ccc(O)cc1)NC(=O)[C@H]1CCC[C@@H]1NC(=O)[C@H]1CCC[C@@H]1NC(=O)C[C@H](CC(=O)O)NC(=O)[C@H]1CCC[C@@H]1NC(=O)[C@H]1CCC[C@@H]1N [H12 DY] |  | Kd (Gal-1): 205 µM

Further lines, with some results ahead:

Row | Kd (S100B; H12 library) [µM] | SMILES | other results
13 | 219 | C[C@@H](CC(=O)N[C@H]1CCC[C@@H]1C(=O)N[C@H]1CCC[C@@H]1C(=O)N[C@@H](CCCNC(=N)N)CC(=O)N[C@H]1CCC[C@@H]1C(=O)N[C@H]1CCC[C@@H]1C(N)=O)NC(=O)[C@H]1CCC[C@@H]1NC(=O)[C@H]1CCC[C@@H]1N [H12 AR] | 
14 | 243 | C[C@@H](CC(=O)N[C@H]1CCC[C@@H]1C(=O)N[C@H]1CCC[C@@H]1C(N)=O)NC(=O)[C@H]1CCC[C@@H]1NC(=O)[C@H]1CCC[C@@H]1NC(=O)C[C@H](CCCCN)NC(=O)[C@H]1CCC[C@@H]1NC(=O)[C@H]1CCC[C@@H]1N [H12 KA] | 
